We go through 18 sequences from patent US20260250318A1, “COMPOSITIONS AND METHODS FOR CROSSING THE BLOOD BRAIN BARRIER” (VOYAGER THERAPEUTICS, INC., priority 2022, published 2026).

The first experiment deals with brains, heart, liver, muscle, and DRG of the NHPs. The experiment in a line: Maturation of TTM-001 and TTM-002 capsids, NGS enrichment in NHP tissues. It is filed as in vivo. The note with it: NGS fold-enrichment; DRG; NHP; relative to AAV9. The text has this: This Example describes maturation of the AAV9 capsid variants, TTM-001 (SEQ ID NO: 981 (amino acid) and 983 (DNA), comprising SEQ ID NO: 941 (encoded by SEQ ID NO: 942)) and TTM-002 (SEQ ID NO: 982 (amino acid) and 984 (DNA), comprising SEQ ID NO: […] (encoded by SEQ ID NO: 944)) in NHPs to further enhance their transduction and biodistribution in the central nervous system as well as other tissues, and evolve the AAV capsid variants to provide further cross-species compatibility. Two approaches were used to mature the TTM-001 and TTM-002 capsid sequences in order to randomize and mutate within and around the peptide insert comprised within loop IV of the capsid variant. […] In the first maturation approach, sets of three contiguous amino acids were randomized across the mutagenesis region in the TTM-001 and TTM-002 sequences, which spanned from position 450 to position 466, numbered according to SEQ ID NO: 981 and 982. In the second maturation approach, mutagenic primers were used to introduce point mutations at a low frequency, scattered across the mutagenesis region in the TTM-001 and TTM-002 sequences ranging from position 449 to position 466, numbered according to SEQ ID NO: 981 and 982. AAV capsid variants arising from each maturation approach for TTM-001 and TTM-002 were pooled together, for subsequent testing and characterization in NHPs.
The library of pooled matured AAV capsid variants generated using the first maturation approach and the second maturation approach for the TTM-001 and TTM-002 AAV capsid variants were injected into two NHPs. […] Following RNA recovery and RT-PCR amplification, a systematic NGS enrichment analysis was performed to calculate the fold enrichment ratio relative to an AAV9 control, and the peptides comprised within the variants were identified.
Following the RNA recovery and NGS analysis from the second maturation approach, approximately 680,000 capsid variants were identified. The 680,000 matured capsid variants were then filtered based on samples with a raw virus count greater than 10 and a coefficient of variance (CV) of less than 1, which was calculated for each peptide across the brain samples taken from the two NHPs. […] Using this filtering criteria, this led to approximately 64,000 matured capsid variants.
On to KTINGSGSPHSVFENQQT, for which the “Fold Enrichment relative to AAV9, DRG (NHP)” value is 0.000 fold.

Still in this experiment, the particulars now being: NGS fold-enrichment; brain; NHP; relative to AAV9.
Regarding KTINGSGSPHSVFENQQT, the “Fold Enrichment relative to AAV9, Brain (NHP)” value was found to be 0.000 fold.

Staying with this experiment, now noted: NGS fold-enrichment; heart; NHP; relative to AAV9.
As for KTINGSGSPHSVFENQQT, the “Fold Enrichment relative to AAV9, Heart (NHP)” value is reported as 0.000 fold.

The same experiment, now with this note: NGS fold-enrichment; liver DNA; NHP; relative to AAV9.
With KTINGSGSPHSVFENQQT, the “Fold Enrichment relative to AAV9, Liver DNA (NHP)” value is listed as 0.224 fold.

The experiment is the same for the next values; noted with them: NGS fold-enrichment; liver RNA; NHP; relative to AAV9.
Regarding KTINGSGSPHSVFENQQT, the “Fold Enrichment relative to AAV9, Liver RNA (NHP)” value worked out at 10.218 fold.

The same experiment, now with this note: NGS fold-enrichment; muscle; NHP; relative to AAV9.
With KTINGSGSPHSVFENQQT, the “Fold Enrichment relative to AAV9, Muscle (NHP)” value worked out at 0.000 fold.

Staying with this experiment, now noted: NHP DRG; NGS; relative to AAV9 control.
As to KTINGSGSPHSLYQNQQT, the “Fold Enrichment relative to AAV9, DRG (NHP)” value came out at 0.000 fold.
Same read-out and setting: as for KTINGSGSPHSKMPCQQT, the figure is 0.000 fold.
On to KTINSCFSPHSKAQNQQT, for which the “Fold Enrichment relative to AAV9, DRG (NHP)” value is recorded as 0.000 fold.
The same measure, in the same setting: as for KTINGSGSPHSKLFWQQT, the figure is 0.000 fold; as for KTINGSGSPHSKAFSWQT, 0.000 fold.
Same read-out and setting: as for KTINGSGSPHSVKKNQQT, the figure is 0.000 fold.
On the same count and under the same terms, as for KTINGSGSPHSKAQRFKT, the figure is 0.000 fold.
With KTINGSGSPHSWAPNQQT, the “Fold Enrichment relative to AAV9, DRG (NHP)” value is reported as 0.000 fold.
Still for that read-out and setting: as for KTINGSGSPHSKPFRQQT, the figure is 0.000 fold.
The same measure, in the same setting: as for KTINGSGSPHSFRPNQQT, the figure is 0.000 fold; as for KRSYGSGSPHSKAQNQQT, 0.000 fold.
The same measure, in the same setting: as for KTINGSGSPHSYARNQQT, the figure is 0.000 fold; as for “KTINGSSSPHRCAQNQQT (peptide inserted in AAV capsid)”, 0.000 fold.
In the case of KTINGSGSPHRCCQNQQT, the “Fold Enrichment relative to AAV9, DRG (NHP)” value is on record as 0.000 fold.
The same measure, in the same setting: as for KTINGSLSPHFWAQNQQT, the figure is 0.000 fold; as for KTINGSGSPHSLYWNQQT, 0.000 fold; as for KTINGRPSPHGKAQNQQT, 0.000 fold.

The same experiment, now with this note: NHP brain; NGS; relative to AAV9 control.
Consider KTINGSGSPHSLYQNQQT, for which the “Fold Enrichment relative to AAV9, Brain (NHP)” value worked out at 0.000 fold.
Same read-out and setting: as for KTINGSGSPHSKMPCQQT, the figure is 0.000 fold.
Still for that read-out and setting: as for KTINSCFSPHSKAQNQQT, the figure is 0.000 fold.
The same measure, in the same setting: as for KTINGSGSPHSKLFWQQT, the figure is 0.000 fold; as for KTINGSGSPHSKAFSWQT, 0.000 fold.
For the sequence KTINGSGSPHSVKKNQQT, the “Fold Enrichment relative to AAV9, Brain (NHP)” value turned out to be 0.000 fold.
Still for that read-out and setting: as for KTINGSGSPHSKAQRFKT, the figure is 0.000 fold.
On the same count and under the same terms, as for KTINGSGSPHSWAPNQQT, the figure is 0.000 fold; as for KTINGSGSPHSKPFRQQT, 0.000 fold.
The same measure, in the same setting: as for KTINGSGSPHSFRPNQQT, the figure is 0.000 fold; as for KRSYGSGSPHSKAQNQQT, 0.000 fold; as for KTINGSGSPHSYARNQQT, 0.000 fold.
“KTINGSSSPHRCAQNQQT (peptide inserted in AAV capsid)”: the “Fold Enrichment relative to AAV9, Brain (NHP)” value is given as 0.000 fold.
Still for that read-out and setting: as for KTINGSGSPHRCCQNQQT, the figure is 0.000 fold.
Same read-out and setting: as for KTINGSLSPHFWAQNQQT, the figure is 0.000 fold.
Still for that read-out and setting: as for KTINGSGSPHSLYWNQQT, the figure is 0.000 fold; as for KTINGRPSPHGKAQNQQT, 0.000 fold.

Still in this experiment, the particulars now being: NHP heart; NGS; relative to AAV9 control.
In the case of KTINGSGSPHSLYQNQQT, the “Fold Enrichment relative to AAV9, Heart (NHP)” value was 0.000 fold.
Still for that read-out and setting: as for KTINGSGSPHSKMPCQQT, the figure is 0.000 fold.
The same measure, in the same setting: as for KTINSCFSPHSKAQNQQT, the figure is 0.000 fold; as for KTINGSGSPHSKLFWQQT, 0.000 fold.
Still for that read-out and setting: as for KTINGSGSPHSKAFSWQT, the figure is 0.000 fold; as for KTINGSGSPHSVKKNQQT, 0.000 fold; as for KTINGSGSPHSKAQRFKT, 0.000 fold.
With KTINGSGSPHSWAPNQQT, the “Fold Enrichment relative to AAV9, Heart (NHP)” value came to 0.000 fold.
Still for that read-out and setting: as for KTINGSGSPHSKPFRQQT, the figure is 0.000 fold; as for KTINGSGSPHSFRPNQQT, 0.000 fold.
Still for that read-out and setting: as for KRSYGSGSPHSKAQNQQT, the figure is 0.000 fold; as for KTINGSGSPHSYARNQQT, 0.000 fold; as for “KTINGSSSPHRCAQNQQT (peptide inserted in AAV capsid)”, 0.000 fold.
Take KTINGSGSPHRCCQNQQT: the “Fold Enrichment relative to AAV9, Heart (NHP)” value stood at 0.000 fold.
Same read-out and setting: as for KTINGSLSPHFWAQNQQT, the figure is 0.000 fold; as for KTINGSGSPHSLYWNQQT, 0.000 fold; as for KTINGRPSPHGKAQNQQT, 0.000 fold.

The experiment is the same for the next values; noted with them: NHP liver DNA; NGS; relative to AAV9 control.
For KTINGSGSPHSLYQNQQT, the “Fold Enrichment relative to AAV9, Liver DNA (NHP)” value is given as 1.503 fold.
Still for that read-out and setting: as for KTINGSGSPHSKMPCQQT, the figure is 1.063 fold; as for KTINSCFSPHSKAQNQQT, 1.016 fold; as for KTINGSGSPHSKLFWQQT, 4.178 fold.
Still for that read-out and setting: as for KTINGSGSPHSKAFSWQT, the figure is 1.805 fold; as for KTINGSGSPHSVKKNQQT, 3.908 fold; as for KTINGSGSPHSKAQRFKT, 0.139 fold.
Still for that read-out and setting: as for KTINGSGSPHSWAPNQQT, the figure is 1.789 fold; as for KTINGSGSPHSKPFRQQT, 8.700 fold; as for KTINGSGSPHSFRPNQQT, 9.191 fold.
For KRSYGSGSPHSKAQNQQT, the “Fold Enrichment relative to AAV9, Liver DNA (NHP)” value is 2.841 fold.
For the sequence KTINGSGSPHSYARNQQT, the “Fold Enrichment relative to AAV9, Liver DNA (NHP)” value came out at 0.996 fold.
Still for that read-out and setting: as for “KTINGSSSPHRCAQNQQT (peptide inserted in AAV capsid)”, the figure is 1.829 fold; as for KTINGSGSPHRCCQNQQT, 2.213 fold.
On the same count and under the same terms, as for KTINGSLSPHFWAQNQQT, the figure is 2.041 fold.
As for KTINGSGSPHSLYWNQQT, the “Fold Enrichment relative to AAV9, Liver DNA (NHP)” value is given as 0.000 fold.
The same measure, in the same setting: as for KTINGRPSPHGKAQNQQT, the figure is 0.705 fold.

Staying with this experiment, now noted: NHP liver RNA; NGS; TTM-001 and TTM-002 matured AAV capsid variants; relative to AAV9 control.
With KTINGSGSPHSLYQNQQT, the “Fold Enrichment relative to AAV9, Liver RNA (NHP)” value is listed as 11.590 fold.
On the same count and under the same terms, as for KTINGSGSPHSKMPCQQT, the figure is 15.343 fold; as for KTINSCFSPHSKAQNQQT, 11.847 fold; as for KTINGSGSPHSKLFWQQT, 37.022 fold.
Still for that read-out and setting: as for KTINGSGSPHSKAFSWQT, the figure is 51.304 fold; as for KTINGSGSPHSVKKNQQT, 48.475 fold.
Same read-out and setting: as for KTINGSGSPHSKAQRFKT, the figure is 30.363 fold.
Regarding KTINGSGSPHSWAPNQQT, the “Fold Enrichment relative to AAV9, Liver RNA (NHP)” value was 47.897 fold.
On the same count and under the same terms, as for KTINGSGSPHSKPFRQQT, the figure is 29.842 fold; as for KTINGSGSPHSFRPNQQT, 44.801 fold; as for KRSYGSGSPHSKAQNQQT, 22.474 fold.
On the same count and under the same terms, as for KTINGSGSPHSYARNQQT, the figure is 11.131 fold; as for “KTINGSSSPHRCAQNQQT (peptide inserted in AAV capsid)”, 28.887 fold; as for KTINGSGSPHRCCQNQQT, 19.084 fold.
Still for that read-out and setting: as for KTINGSLSPHFWAQNQQT, the figure is 43.190 fold; as for KTINGSGSPHSLYWNQQT, 53.262 fold; as for KTINGRPSPHGKAQNQQT, 14.442 fold.

Staying with this experiment, now noted: NHP muscle; NGS; relative to AAV9 control.
Consider KTINGSGSPHSLYQNQQT, for which the “Fold Enrichment relative to AAV9, Muscle (NHP)” value was 0.000 fold.
Still for that read-out and setting: as for KTINGSGSPHSKMPCQQT, the figure is 0.000 fold; as for KTINSCFSPHSKAQNQQT, 0.000 fold.
The same measure, in the same setting: as for KTINGSGSPHSKLFWQQT, the figure is 0.000 fold; as for KTINGSGSPHSKAFSWQT, 0.000 fold; as for KTINGSGSPHSVKKNQQT, 0.000 fold.
Same read-out and setting: as for KTINGSGSPHSKAQRFKT, the figure is 0.000 fold.
With KTINGSGSPHSWAPNQQT, the “Fold Enrichment relative to AAV9, Muscle (NHP)” value is on record as 0.000 fold.
As to KTINGSGSPHSKPFRQQT, the “Fold Enrichment relative to AAV9, Muscle (NHP)” value stood at 0.000 fold.
The same measure, in the same setting: as for KTINGSGSPHSFRPNQQT, the figure is 0.000 fold; as for KRSYGSGSPHSKAQNQQT, 0.000 fold.
Still for that read-out and setting: as for KTINGSGSPHSYARNQQT, the figure is 0.000 fold.
Still for that read-out and setting: as for “KTINGSSSPHRCAQNQQT (peptide inserted in AAV capsid)”, the figure is 0.000 fold.
For KTINGSGSPHRCCQNQQT, the “Fold Enrichment relative to AAV9, Muscle (NHP)” value came out at 0.000 fold.
Still for that read-out and setting: as for KTINGSLSPHFWAQNQQT, the figure is 0.000 fold.
Same read-out and setting: as for KTINGSGSPHSLYWNQQT, the figure is 0.000 fold; as for KTINGRPSPHGKAQNQQT, 0.000 fold.
